Structures can show the parent of a compound that is named as a salt. Where two headings read alike, the source gives them in different places.

One data set is described as follows: in vitro. Conditions: African green monkey.
Another data set deals with SARS-COV-2. In words: microbe, parasite or virus in culture. In kind it is cell-based. More on the design: SI (Selectivity Index, CC50/IC50): unit not given here. As to conditions: for SI (Selectivity Index, CC50/IC50): SARS-COV-2, values >50 assumed to be 50; for IC50: read-out: SARS-COV-2 inhibition (IC50).
Setting [1] is: Severe acute respiratory syndrome coronavirus 2, Vero cells, 24 hours infection.
Setting [2] is: Severe acute respiratory syndrome coronavirus 2, Vero, 24 h.

On to `COc1cc2cc3c(c(-c4cnc(N(C)CCC5OCCO5)nc4)c2cc1OC)C(=O)OC3` [Example 158, 9-(2-((2-(1,3-dioxolan-2-yl)ethyl)(methyl)amino)pyrimidin-5-yl)-6,7-dimethoxynaphtho[2,3-c]furan-1(3H)-one], for which, in the data set “in vitro”, the CC50 is > 50 µM. Moreover, in the data set on SARS-COV-2, the “SI (Selectivity Index, CC50/IC50)” value is 7.26. In the data set with SARS-COV-2 (setting [1]), the IC50 stood at 6.89 µM.
For `COc1cc2cc3c(c(-c4ccc(-n5nc(N(C)C)nc5SC)nc4)c2cc1OC)C(=O)OC3.Cl` [Example 223, 9-(6-(3-(dimethylamino)-5-(methylthio)-1H-1,2,4-triazol-1-yl)pyridin-3-yl)-6,7-dimethoxynaphtho[2,3-c]furan-1(3H)-one], in the data set “in vitro”, the CC50 was > 50 µM. Besides, the “SI (Selectivity Index, CC50/IC50)” value in the data set on SARS-COV-2 came out at 3.11. In addition, the IC50 in the data set on SARS-COV-2 (setting [2]) came to 16.1 µM.
For the compound `COc1cc2cc3c(c(-c4ccc(N5CC(C)CC(C)C5)nc4)c2cc1OC)C(=O)OC3` (stereo not drawn) [Example 127, 9-(6-(3,5-dimethylpiperidin-1-yl)pyridin-3-yl)-6,7-dimethoxynaphtho[2,3-c]furan-1(3H)-one], in “in vitro”, the CC50 is > 50 µM. For the same compound, in the data set on SARS-COV-2, the “SI (Selectivity Index, CC50/IC50)” value is reported as 45.29. The IC50 in the data set with SARS-COV-2 (setting [1]) came out at 1.1 µM.
In the case of `COc1cc2cc3c(c(N4CCN(c5ncc(Br)cn5)CC4)c2cc1OC)C(=O)OC3` [Example 131, 9-(4-(5-bromopyrimidin-2-yl)piperazin-1-yl)-6,7-dimethoxynaphtho[2,3-c]furan-1(3H)-one], the CC50 in the data set “in vitro” is > 50 µM. Further, the “SI (Selectivity Index, CC50/IC50)” value in the data set on SARS-COV-2 is given as 1.44. The 50% inhibitory concentration (IC50) in the data set on SARS-COV-2 (setting [1]) worked out at 34.6 µM.
For the compound `COc1cc2cc3c(c(-c4ccc(N(C)c5ccc(C#N)cc5)nc4)c2cc1OC)C(=O)OC3.Cl` [Example 218, 4-((5-(6,7-dimethoxy-3-oxo-1,3-dihydronaphtho[2,3-c]furan-4-yl)pyridin-2-yl)(methyl)amino)benzonitrile], the CC50 in “in vitro” is > 50 µM. For the same compound, the “SI (Selectivity Index, CC50/IC50)” value with SARS-COV-2 turned out to be 65.75. In addition, the IC50 in the data set on SARS-COV-2 (setting [2]) is 0.76 µM.
The matching figures for `COc1cc2cc3c(c(-c4cc5c(cc4OC(=O)C(N)C(C)C)OCO5)c2cc1OC)C(=O)OC3.Cl` (stereo in doubt) [Example 269, 6-(6,7-dimethoxy-3-oxo-1,3-dihydronaphtho[2,3-c]furan-4-yl)benzo[d][1,3]dioxol-5-yl L-valinate hydrochloride]: > 50 µM, 94.66 and 0.53 µM.
`COc1cc2cc3c(c(-c4cnc(N(C)C)nc4)c2cc1OC)C(=O)OC3` [Example 11, 9-(2-(dimethylamino)pyrimidin-5-yl)-6,7-dimethoxynaphtho[2,3-c]furan-1(3H)-one]: the CC50 in the data set “in vitro” is > 50 µM. Further, the “SI (Selectivity Index, CC50/IC50)” value with SARS-COV-2 is on record as 309.03. Besides, in the data set on SARS-COV-2 (setting [1]), the IC50 turned out to be 0.16 µM.
The matching figures for `COc1cc2cc3c(c(-c4cccc5cccnc45)c2cc1OC)C(=O)OC3` [Example 125, 6,7-dimethoxy-9-(quinolin-8-yl)naphtho[2,3-c]furan-1(3H)-one]: > 50 µM, 1.0 and > 50 µM.
`COc1cc2cc3c(c(-c4cnccn4)c2cc1OC)C(=O)OC3` [Example 32, 6,7-dimethoxy-9-(pyrazin-2-yl)naphtho[2,3-c]furan-1(3H)-one]: in the data set “in vitro”, the CC50 was > 50 µM. For the same compound, in the data set on SARS-COV-2, the “SI (Selectivity Index, CC50/IC50)” value was 1.00. The concentration for half-maximal inhibition (IC50) with SARS-COV-2 (setting [1]) was > 50 µM.
`COc1cc2cc3c(c(-c4cnc(N5CCC[C@@H]5CN5CCCC5)nc4)c2cc1OC)C(=O)OC3` [Example 110, (R)-6,7-dimethoxy-9-(2-(2-(pyrrolidin-1-ylmethyl)pyrrolidin-1-yl)pyrimidin-5-yl)naphtho[2,3-c]furan-1(3H)-one]: the CC50 in the data set “in vitro” was > 50 µM. In addition, the “SI (Selectivity Index, CC50/IC50)” value in the data set with SARS-COV-2 is 5.78. Further, the 50% inhibitory concentration (IC50) in the data set with SARS-COV-2 (setting [1]) was 8.66 µM.
For `COc1cc2c(OC)c3c(c(-c4ccc(-n5cc(C#N)c(N(C)C)n5)nc4)c2cc1OC)COC3=O` [Example 264, 3-(dimethylamino)-1-(5-(6,7,9-trimethoxy-1-oxo-1,3-dihydronaphtho[2,3-c]furan-4-yl)pyridin-2-yl)-1H-pyrazol-4-carbonitrile], in that order: > 50 µM, 1.00 and > 50 µM.
With `COc1cc2cc3c(c(-c4cnc(NCC5CC5)nc4)c2cc1OC)C(=O)OC3` [Example 67, 9-(2-((cyclopropylmethyl)amino)pyrimidin-5-yl)-6,7-dimethoxynaphtho[2,3-c]furan-1(3H)-one], in “in vitro”, the CC50 is > 50 µM. The “SI (Selectivity Index, CC50/IC50)” value with SARS-COV-2 is listed as 2.72. Also, the 50% inhibitory concentration (IC50) with SARS-COV-2 (setting [1]) came to 18.4 µM.
Consider `CNc1ccc(-c2c3c(cc4cc(OC)c(OC)cc24)COC3=O)cn1` [Example 229, 6,7-dimethoxy-9-(6-(methylamino)pyridin-3-yl)naphtho[2,3-c]furan-1(3H)-one], for which the CC50 in the data set “in vitro” was > 50 µM. For the same compound, the “SI (Selectivity Index, CC50/IC50)” value in the data set with SARS-COV-2 is 17.63. Besides, the IC50 in the data set with SARS-COV-2 (setting [1]) is 2.84 µM.
Turning to `COc1cc2cc3c(c(-c4cccc(N5CCOCC5)c4)c2cc1OC)C(=O)OC3` [Example 244, 6,7-dimethoxy-9-(3-morpholinophenyl)naphtho[2,3-c]furan-1(3H)-one], the CC50 in “in vitro” is > 50 µM. Further, the “SI (Selectivity Index, CC50/IC50)” value in the data set with SARS-COV-2 was 1.00. In addition, the IC50 in the data set with SARS-COV-2 (setting [1]) was > 50 µM.
Turning to `COc1cc2cc3c(c(-c4cc5c(cc4OC(=O)C(C)C)OCO5)c2cc1OC)C(=O)OC3` [Example 275, 6-(6,7-dimethoxy-3-oxo-1,3-dihydronaphtho[2,3-c]furan-4-yl)benzo[d][1,3]dioxol-5-yl isobutrate], the CC50 in the data set “in vitro” was > 50 µM. Besides, the “SI (Selectivity Index, CC50/IC50)” value in the data set with SARS-COV-2 was found to be 1.76. The IC50 with SARS-COV-2 (setting [1]) is 28.4 µM.
Consider `CCCN(CCO)c1ncc(-c2c3c(cc4cc(OC)c(OC)cc24)COC3=O)cn1.Cl` [Example 77, 9-(2-((2-hydroxyethyl)(propyl)amino)pyrimidin-5-yl)-6,7-dimethoxynaphtho[2,3-c]furan-1(3H)-one hydrochloride], for which the CC50 in “in vitro” is > 50 µM. The “SI (Selectivity Index, CC50/IC50)” value in the data set on SARS-COV-2 is on record as 1.58. Further, in the data set with SARS-COV-2 (setting [2]), the 50% inhibitory concentration (IC50) turned out to be 31.6 µM.
For `CCCN(CC1CC1)c1ncc(-c2c3c(cc4cc(OC)c(OC)cc24)COC3=O)cn1` [Example 105, 9-(2-((cyclopropylmethyl)(propyl)amino)pyrimidin-5-yl)-6,7-dimethoxynaphtho[2,3-c]furan-1(3H)-one hydrochloride], in that order: > 50 µM, 9.56 and 5.23 µM.
With `COc1cc2cc3c(c(-c4cc5c(cc4OC(=O)OC4CCCCC4)OCO5)c2cc1OC)C(=O)OC3` [Example 99, cyclohexyl (6-(6,7-dimethoxy-3-oxo-1,3-dihydronaphtho[2,3-c]furan-4-yl)benzo[d][1,3]dioxol-5-yl)carbonate], the CC50 in the data set “in vitro” was > 50 µM. Also, in the data set on SARS-COV-2, the “SI (Selectivity Index, CC50/IC50)” value is 8.70. In the data set on SARS-COV-2 (setting [1]), the IC50 was 5.75 µM.
Consider `CCC(C)CNc1ncc(-c2c3c(cc4cc(OC)c(OC)cc24)COC3=O)cn1` (stereo not drawn) [Example 64, 6,7-dimethoxy-9-(2-((2-methylbutyl)amino)pyrimidin-5-yl)naphtho[2,3-c]furan-1(3H)-one], for which the CC50 in the data set “in vitro” is > 50 µM. The “SI (Selectivity Index, CC50/IC50)” value in the data set on SARS-COV-2 amounted to 1.00. The IC50 in the data set on SARS-COV-2 (setting [1]) is > 50 µM.
With `COc1cc2cc3c(c(-c4cc5c(cc4OC)OCO5)c2cc1OC)C(=O)OC3` [Example 88, 6,7-dimethoxy-9-(6-methoxybenzo[d][1,3]dioxol-5-yl)naphtho[2,3-c]furan-1(3H)-one], the CC50 in the data set “in vitro” was > 50 µM. Further, the “SI (Selectivity Index, CC50/IC50)” value with SARS-COV-2 was found to be 3.00. In addition, the half-inhibitory concentration (IC50) in the data set on SARS-COV-2 (setting [1]) was found to be 16.6 µM.
`CCCCN(CC)c1ncc(-c2c3c(cc4cc(OC)c(OC)cc24)COC3=O)cn1` [Example 66, 9-(2-(butyl(ethyl)amino)pyrimidin-5-yl)-6,7-dimethoxynaphtho[2,3-c]furan-1(3H)-one]: the CC50 in “in vitro” is > 50 µM. Also, the “SI (Selectivity Index, CC50/IC50)” value with SARS-COV-2 is recorded as 19.03. The IC50 in the data set on SARS-COV-2 (setting [1]) stood at 2.63 µM.
For the compound `COc1cc2cc3c(c(-c4ccc(N(C)C(=O)c5ccc(Cl)nc5)nc4)c2cc1OC)C(=O)OC3.Cl` [Example 234, 6-chloro-N-(5-(6,7-dimethoxy-3-oxo-1,3-dihydronaphtho[2,3-c]furan-4-yl)pyridin-2-yl)-N-methylnicotinamide], the CC50 in “in vitro” was > 50 µM. The “SI (Selectivity Index, CC50/IC50)” value with SARS-COV-2 is 1.00. In the data set with SARS-COV-2 (setting [2]), the IC50 is > 50 µM.
Take `COc1cc2cc3c(c(-c4ccc(N(C)CC(OC)OC)nc4)c2cc1OC)C(=O)OC3` [Example 162, 9-(6-((2,2-dimethoxyethyl)(methyl)amino)pyridin-3-yl)-6,7-dimethoxynaphtho[2,3-c]furan-1(3H)-one]: the CC50 in “in vitro” was > 50 µM. Besides, the “SI (Selectivity Index, CC50/IC50)” value in the data set on SARS-COV-2 was determined as 11.63. For the same compound, the half-maximal inhibitory concentration (IC50) with SARS-COV-2 (setting [1]) worked out at 4.3 µM.
With `COc1cc2cc3c(c(-c4ccc(N5CCC(N(C)C)CC5)nc4)c2cc1OC)C(=O)OC3.Cl` [Example 238, 9-(6-(4-(dimethylamino)piperidin-1-yl)pyridin-3-yl)-6,7-dimethoxynaphtho[2,3-c]furan-1(3H)-one], in the data set “in vitro”, the CC50 is > 50 µM. The “SI (Selectivity Index, CC50/IC50)” value in the data set with SARS-COV-2 worked out at 2.84. Also, in the data set on SARS-COV-2 (setting [2]), the 50% inhibitory concentration (IC50) came out at 17.6 µM.
As for `CCN(CC)c1ccc(-c2c3c(cc4cc(OC)c(OC)cc24)COC3=O)cc1` [Example 249, 9-(4-(diethylamino)phenyl)-6,7-dimethoxynaphtho[2,3-c]furan-1(3H)-one], the CC50 in “in vitro” is > 50 µM. Further, in the data set with SARS-COV-2, the “SI (Selectivity Index, CC50/IC50)” value was determined as 100.23. The 50% inhibitory concentration (IC50) with SARS-COV-2 (setting [1]) is 0.5 µM.
For `CCNc1ccc(-c2c3c(cc4cc(OC)c(OC)cc24)COC3=O)cc1` [Example 250, 9-(4-(ethylamino)phenyl)-6,7-dimethoxynaphtho[2,3-c]furan-1(3H)-one], in that order: > 50 µM, 10.40 and 4.81 µM.

(Values after patent publication US20240368104A1, “Novel Dialkoxynaphtho[2,3-C]Furan-1(3H)-One Derivatives and Pharmaceutical Composition For Preventing or Treating Respiratory Disease or SARS-COV-2 Infection Disease, Comprising Same” (priority 2021, published 2024).)
